The values below come from ChEMBL document CHEMBL1201862, “PubChem BioAssay data set” (2004).

Structures are written as SMILES. Calls of active or inactive are those of the source. Cut-off read from the data, not from the text of the source, for most assays here: actives have a measured IC50 and inactives only a lower limit.

Format in all cases: functional
For assay [1], the target named is T1, Hexokinase-1 (Homo sapiens, UniProt P19367).
T1 sequence (P19367 whole entry): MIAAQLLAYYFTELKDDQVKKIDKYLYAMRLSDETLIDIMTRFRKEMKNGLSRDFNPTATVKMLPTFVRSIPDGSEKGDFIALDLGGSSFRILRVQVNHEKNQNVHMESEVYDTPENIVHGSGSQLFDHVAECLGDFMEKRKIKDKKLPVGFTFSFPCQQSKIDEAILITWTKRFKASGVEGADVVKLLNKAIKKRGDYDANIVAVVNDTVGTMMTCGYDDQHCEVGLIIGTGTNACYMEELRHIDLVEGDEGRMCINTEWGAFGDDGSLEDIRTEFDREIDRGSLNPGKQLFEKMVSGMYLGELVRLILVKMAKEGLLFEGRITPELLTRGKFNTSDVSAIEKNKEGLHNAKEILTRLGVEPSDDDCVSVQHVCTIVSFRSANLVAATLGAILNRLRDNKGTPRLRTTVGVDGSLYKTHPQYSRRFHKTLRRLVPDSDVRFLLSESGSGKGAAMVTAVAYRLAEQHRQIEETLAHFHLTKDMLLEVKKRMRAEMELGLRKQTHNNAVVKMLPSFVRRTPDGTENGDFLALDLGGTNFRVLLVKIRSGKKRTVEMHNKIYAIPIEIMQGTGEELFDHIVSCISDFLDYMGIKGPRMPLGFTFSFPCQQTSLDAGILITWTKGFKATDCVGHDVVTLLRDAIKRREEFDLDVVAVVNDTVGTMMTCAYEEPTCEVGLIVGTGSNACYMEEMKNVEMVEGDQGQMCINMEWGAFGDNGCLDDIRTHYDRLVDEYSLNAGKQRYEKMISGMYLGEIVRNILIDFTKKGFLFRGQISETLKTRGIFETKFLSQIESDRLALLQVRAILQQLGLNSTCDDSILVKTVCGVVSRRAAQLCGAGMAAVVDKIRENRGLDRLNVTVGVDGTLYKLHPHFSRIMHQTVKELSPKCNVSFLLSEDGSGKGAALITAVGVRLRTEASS
In words: SAR analysis of small molecule inhibitors of hexokinase domain containing I (HKDC1) in the hexokinase 1 selectivity assay. [Related pubchem assays (depositor defined):AID493160, AID493190].

Assay [2] deals with T2, Hexokinase HKDC1 (Homo sapiens, UniProt Q2TB90).
T2 sequence (Q2TB90 whole entry): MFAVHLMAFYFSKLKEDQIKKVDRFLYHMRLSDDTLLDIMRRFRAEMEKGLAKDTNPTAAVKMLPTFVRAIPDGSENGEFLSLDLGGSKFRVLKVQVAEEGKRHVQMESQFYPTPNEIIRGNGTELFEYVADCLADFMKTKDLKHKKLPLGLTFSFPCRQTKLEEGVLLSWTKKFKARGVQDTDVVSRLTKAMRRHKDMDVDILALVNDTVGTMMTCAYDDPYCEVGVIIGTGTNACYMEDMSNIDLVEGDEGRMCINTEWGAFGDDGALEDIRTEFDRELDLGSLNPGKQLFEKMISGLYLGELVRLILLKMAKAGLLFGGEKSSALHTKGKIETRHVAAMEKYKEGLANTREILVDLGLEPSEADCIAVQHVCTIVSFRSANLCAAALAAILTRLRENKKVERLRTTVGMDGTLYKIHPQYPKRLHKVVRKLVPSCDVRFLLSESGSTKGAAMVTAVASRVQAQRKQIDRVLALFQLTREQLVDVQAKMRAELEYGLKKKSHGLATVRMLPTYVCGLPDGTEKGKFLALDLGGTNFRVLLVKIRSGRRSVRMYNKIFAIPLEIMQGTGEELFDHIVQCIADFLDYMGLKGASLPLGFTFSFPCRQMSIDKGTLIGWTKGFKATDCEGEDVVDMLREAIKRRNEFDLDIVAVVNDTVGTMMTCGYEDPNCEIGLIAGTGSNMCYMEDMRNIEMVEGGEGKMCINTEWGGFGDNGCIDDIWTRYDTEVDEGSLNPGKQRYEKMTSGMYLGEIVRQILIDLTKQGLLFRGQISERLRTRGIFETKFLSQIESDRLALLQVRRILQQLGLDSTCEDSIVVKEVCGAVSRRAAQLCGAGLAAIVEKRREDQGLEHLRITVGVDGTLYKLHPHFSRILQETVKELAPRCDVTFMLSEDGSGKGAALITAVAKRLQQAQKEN
In words: SAR analysis of small molecule inhibitors of hexokinase domain containing I (HKDC1). [Related pubchem assays (depositor defined):AID493160, AID493190].

The target of assay [3] is T3, Caspase-3 (Homo sapiens, UniProt P42574).
T3 sequence (P42574 whole entry): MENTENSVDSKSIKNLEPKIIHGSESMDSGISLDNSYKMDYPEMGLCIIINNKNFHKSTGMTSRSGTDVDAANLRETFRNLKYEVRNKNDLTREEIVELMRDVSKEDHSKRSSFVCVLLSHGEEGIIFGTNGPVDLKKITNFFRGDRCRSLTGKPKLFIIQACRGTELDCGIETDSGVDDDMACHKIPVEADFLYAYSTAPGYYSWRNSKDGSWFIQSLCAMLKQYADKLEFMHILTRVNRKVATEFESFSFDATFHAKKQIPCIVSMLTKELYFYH

Assay [4] addresses T4, Sentrin-specific protease 7 (Homo sapiens, UniProt Q9BQF6).
T4 sequence (Q9BQF6 whole entry): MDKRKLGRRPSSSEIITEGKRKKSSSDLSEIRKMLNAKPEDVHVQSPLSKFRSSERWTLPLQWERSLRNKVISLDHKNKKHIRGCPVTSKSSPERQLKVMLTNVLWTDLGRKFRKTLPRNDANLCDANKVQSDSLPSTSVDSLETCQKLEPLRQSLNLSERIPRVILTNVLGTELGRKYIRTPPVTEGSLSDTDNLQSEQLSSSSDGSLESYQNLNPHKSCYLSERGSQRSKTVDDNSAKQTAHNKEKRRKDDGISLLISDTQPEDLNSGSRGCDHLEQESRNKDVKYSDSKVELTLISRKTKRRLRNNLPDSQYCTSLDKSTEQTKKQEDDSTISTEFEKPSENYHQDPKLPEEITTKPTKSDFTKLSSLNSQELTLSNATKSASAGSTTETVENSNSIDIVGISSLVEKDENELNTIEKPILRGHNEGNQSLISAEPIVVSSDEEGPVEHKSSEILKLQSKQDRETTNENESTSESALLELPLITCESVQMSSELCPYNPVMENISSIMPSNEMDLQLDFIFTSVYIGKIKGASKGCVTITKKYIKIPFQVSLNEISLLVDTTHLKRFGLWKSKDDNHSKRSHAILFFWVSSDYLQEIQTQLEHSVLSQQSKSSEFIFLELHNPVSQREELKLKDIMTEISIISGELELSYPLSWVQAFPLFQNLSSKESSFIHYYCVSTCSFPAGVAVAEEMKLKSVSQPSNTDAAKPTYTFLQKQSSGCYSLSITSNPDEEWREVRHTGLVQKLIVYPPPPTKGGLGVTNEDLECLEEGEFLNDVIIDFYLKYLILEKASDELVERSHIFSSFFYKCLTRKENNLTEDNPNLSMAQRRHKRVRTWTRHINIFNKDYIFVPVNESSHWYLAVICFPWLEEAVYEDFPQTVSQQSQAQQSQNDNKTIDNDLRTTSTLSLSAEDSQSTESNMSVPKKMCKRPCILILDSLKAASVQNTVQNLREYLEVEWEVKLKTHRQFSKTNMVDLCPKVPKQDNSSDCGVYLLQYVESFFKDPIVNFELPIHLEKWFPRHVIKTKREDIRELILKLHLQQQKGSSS

Assay [5] addresses T5, Sentrin-specific protease 8 (Homo sapiens, UniProt Q96LD8).
T5 sequence (Q96LD8 whole entry): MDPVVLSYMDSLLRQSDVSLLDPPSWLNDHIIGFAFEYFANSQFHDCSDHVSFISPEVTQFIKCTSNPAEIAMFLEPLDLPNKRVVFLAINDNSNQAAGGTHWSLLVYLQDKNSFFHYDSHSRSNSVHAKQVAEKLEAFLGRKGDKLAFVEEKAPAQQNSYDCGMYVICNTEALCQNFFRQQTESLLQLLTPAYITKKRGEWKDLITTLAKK

The target of assay [6] is T6, Sentrin-specific protease 6 (Homo sapiens, UniProt Q9GZR1).
T6 sequence (Q9GZR1 whole entry): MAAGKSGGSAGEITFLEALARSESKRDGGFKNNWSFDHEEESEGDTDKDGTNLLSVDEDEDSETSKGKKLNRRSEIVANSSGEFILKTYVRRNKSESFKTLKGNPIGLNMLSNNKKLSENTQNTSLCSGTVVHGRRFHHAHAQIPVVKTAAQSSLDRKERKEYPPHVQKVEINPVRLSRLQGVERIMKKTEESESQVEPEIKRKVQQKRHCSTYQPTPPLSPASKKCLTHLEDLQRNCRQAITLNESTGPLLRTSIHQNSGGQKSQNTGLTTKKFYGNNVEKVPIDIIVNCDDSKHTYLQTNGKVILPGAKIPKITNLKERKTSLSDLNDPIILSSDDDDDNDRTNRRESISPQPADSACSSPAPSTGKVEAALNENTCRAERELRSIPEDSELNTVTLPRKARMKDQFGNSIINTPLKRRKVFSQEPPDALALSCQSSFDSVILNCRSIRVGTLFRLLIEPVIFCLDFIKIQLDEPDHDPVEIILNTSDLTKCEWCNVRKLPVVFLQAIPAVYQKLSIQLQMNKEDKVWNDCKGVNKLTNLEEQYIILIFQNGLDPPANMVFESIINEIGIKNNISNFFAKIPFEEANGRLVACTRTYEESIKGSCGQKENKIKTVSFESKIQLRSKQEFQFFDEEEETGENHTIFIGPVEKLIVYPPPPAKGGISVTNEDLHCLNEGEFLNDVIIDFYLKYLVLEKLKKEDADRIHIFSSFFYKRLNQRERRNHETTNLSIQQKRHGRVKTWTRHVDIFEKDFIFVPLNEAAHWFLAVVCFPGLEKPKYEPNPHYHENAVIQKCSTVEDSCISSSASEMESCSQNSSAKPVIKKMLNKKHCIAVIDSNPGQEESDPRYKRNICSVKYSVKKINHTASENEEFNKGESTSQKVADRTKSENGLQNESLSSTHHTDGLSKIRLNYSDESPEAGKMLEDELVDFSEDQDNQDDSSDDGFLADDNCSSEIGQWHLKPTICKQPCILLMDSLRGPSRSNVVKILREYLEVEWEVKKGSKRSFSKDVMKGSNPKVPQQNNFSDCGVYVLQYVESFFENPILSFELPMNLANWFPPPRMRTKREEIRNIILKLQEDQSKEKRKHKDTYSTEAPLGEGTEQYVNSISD

In assay [7] the target is T4, Sentrin-specific protease 7. In words: SENP7 protease inhibitors, SAR follow-up, biochemical, luminescence (AID 504497).
The target of assay [8] is T5, Sentrin-specific protease 8. In words: SENP8 protease inhibitors, SAR follow-up, biochemical, luminescence (AID 504501).
Assay [9] concerns the target T3, Caspase-3. In words: SAR Analysis of small molecule inhibitors of Sentrin-specific proteases (SENPs) using a Caspase-3 Selectivity assay. [Related pubchem assays (depositor defined):AID2540, AID2599, AID434973, AID489001].
Assay [10] has as its target T6, Sentrin-specific protease 6. In words: SAR Analysis of small molecule inhibitors of Sentrin-specific protease 6 (SENP6) using a Luminescent assay. [Related pubchem assays (depositor defined):AID2582, AID2599].
Assay [11] deals with Eukaryotic translation initiation factor 4E (Mus musculus, UniProt P63073). In words: eIF4E–eIF4G protein interaction inhibitors, dose response, biochemical, TR-FRET (AID 855).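 Note: potency for disrupting eIF4E binding to eIF4GI seen as loss of FRET.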 For orientation: Time-resolved FRET reads energy transfer from a long-lived donor to a nearby acceptor.
Eukaryotic translation initiation factor 4E, sequence (P63073 whole entry): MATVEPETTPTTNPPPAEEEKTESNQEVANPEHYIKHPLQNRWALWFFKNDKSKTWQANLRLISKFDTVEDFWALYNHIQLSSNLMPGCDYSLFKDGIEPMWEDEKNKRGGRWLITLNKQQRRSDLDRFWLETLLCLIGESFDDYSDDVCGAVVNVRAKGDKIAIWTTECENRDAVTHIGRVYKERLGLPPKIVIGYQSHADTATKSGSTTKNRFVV

As to `Cc1nc(C)c(C(=O)Nc2cccc(C(=O)Nc3cccc(C(F)(F)F)c3)c2)s1`, the IC50 in assay [1] and in [2] was > 80 µM (inactive) in each case.
With `Clc1ccc2oc(-c3ccccc3)nc2c1`, the IC50 (in general, the point on the concentration scale where inhibition reaches its midpoint) in [3] is 14.2 µM (active); in [4], 7.93 µM (active); in assay [5] it was > 100 µM (inactive); in [6] it was 22 µM (active).
Consider `O=C(O)CSc1cc(NS(=O)(=O)c2ccccc2)c2ccccc2c1O`, for which the IC50 in assay [1] was > 80 µM (inactive); in [2] it was 4.84 µM (active).
On to `O=C(O)c1ccc(OC2CSC2)cc1`, for which the IC50 in [3] is 94.9 µM (active); in assay [4], > 100 µM (inactive); in [7], > 99 µM (inactive); in assay [8], 30 µM (active); in [9], > 99 µM (inactive); in assay [5], 8.43 µM (active). Moreover, the IC50 in assay [10] was 18.7 µM (active); in assay [6] it was 13 µM (active).
Regarding `O=C(Nc1nnc(SCc2ccc(F)cc2)s1)c1ccc2ncsc2c1`, the values for the IC50 in assay [1], in assay [11] and in assay [2] were > 80 µM (inactive), 26.2 µM (active) and 12 µM (active), respectively.
